In patent US10196404B2, “MCL-1 inhibitors and methods of use thereof” (AstraZeneca AB, priority 2016, dated 2019):

Key:
[1] = tested on: MOLP-8 (multiple myeloma) cells; experiment: Caspase Activity Assay (Caspase-Glo 3/7, 6 h treatment), MOLP-8; type: cell-based, human; settings: MOLP-8 cells, geometric mean of multiple measurements
Method: (§1) This is a cell assay to measure the induction of apoptosis in MOLP-8 (multiple myeloma), KMS-12-BM (multiple myeloma), MV-4-11 (acute myeloid leukemia), and NCl-H23 (non-small cell lung cancer) cells after 6 h treatment. On the first day, 3000 (MOLP-8, KMS-12-BM, MV-4-11) or 1250 (NCl-H23) cells/well were seeded in 50 μL of growth media (IMDM+10% FBS+2 mM L-Glu for MV-4-11 and RPM1-1640+10% FBS+2 mM L-Glu for all other cell lines) in 384-well white microplates, and incubated overnight (37° C., 5% CO2, 80% RH). On the second day, the cells were treated with Mcl-1 inhibitors using an ECHO acoustic liquid handler (10 point half-log serial dilution, 31.5 μM top concentration, 0.3% final DMSO concentration). After 6 h incubation (37° C., 5% CO2, 80% RH), 25 μL of Caspase-Glo 3/7 reagent (Promega) was added into each well, and plates were incubated at room temperature for 30 min protected from light. Luminescence was recorded using an Infinite M200 microplate reader (Tecan) with a 100 ms integration time. EC50 values were calculated using GeneData analysis software.

[2] = tested on: NCl-H23 (non-small cell lung cancer) cells; experiment: Caspase Activity Assay (Caspase-Glo 3/7, 6 h treatment), NCI-H23; type: cell-based; settings: geometric mean of multiple measurements
Method: as §1

[3] = tested on: MV-4-11 (acute myeloid leukemia) cells; experiment: Caspase Activity Assay (Caspase-Glo 3/7, 6 h treatment), MV-4-11; type: cell-based, human; settings: MV-4-11 cells, geometric mean of multiple measurements
Method: as §1

[4] = tested on: KMS-12-BM (multiple myeloma) cells; experiment: Caspase Activity Assay (Caspase-Glo 3/7, 6 h treatment), KMS-12-BM; type: cell-based; settings: KMS-12-BM cells, geometric mean of multiple measurements
Method: as §1

NCl-H929 tumor = experiment: In vivo combination efficacy in NCI-H929 human multiple myeloma tumor model; set-up: species or system C.B-17 SCID female mice; settings: NCl-H929 tumor bearing mice; for anti-tumor activity, agent alone: Example 2 30 mg/kg every other week or bortezomib 1 mg/kg weekly
Method: (§2) Example 2 was formulated in 30% 2-Hydroxypropyl-beta-cyclodextrin (HPBCD), pH 9 and dosed as intravenously (iv) in a volume of 5 ml/kg. 5×10^6 MOLP-8 tumor cells or 10^7 NCl-H929 tumor cells were injected subcutaneously in the right flank of C.B-17 SCID female mice in a volume of 0.1 mL. Tumor volumes (measured by caliper) were calculated using the formula: length (mm)×width (mm)^2[…]. For efficacy studies, mice were randomized based on tumor volumes and growth inhibition was assessed by comparison of the differences in tumor volume between control and treated groups. Dosing began when mean tumor size reached approximately 160 mm^3 for MOLP-8 and approximately 230 mm^3 for NCl-H929.

MV-4-11 tumor = experiment: In vivo efficacy in MV-4-11 human acute myeloid leukemia tumor model; set-up: species or system C.B-17 SCID female mice; settings: for mice remaining tumor free / tumor regression: MV-4-11 tumors
Method: as §2, with “a single intravenous” for “intravenously”, “(iv) administration” for “(iv)”, “10^6 MV-4-11” for “5×10^6 MOLP-8 tumor cells or 10^7 NCl-H929”, “mL. Tumor volumes (measured by caliper), animal body weight, and tumor conditions were recorded twice weekly for the duration of the study.” for “mL.”, “approximately” for “approximately 160 mm^3 for MOLP-8 and approximately”, “mm^3.” for “mm^3 for NCl-H929.”

MOLP-8 tumor = experiment: In vivo efficacy in MOLP-8 human multiple myeloma tumor model; set-up: species or system C.B-17 SCID female mice; settings: MOLP-8 tumor bearing mice
Method: as §2

SMILES: Cc1c2c(nn1C)CSCc1cc(n(C)n1)CSc1cc(c3ccccc3c1)OCCCc1c(C(=O)O)n(C)c3c-2c(Cl)ccc13 [Example 1, 17-chloro-5,13,14,22-tetramethyl-28-oxa-2,9-dithia-5,6,12,13,22-pentaazaheptacyclo[27.7.1.1^4,7.0^11,15.0^16,21.0^20,24.0^30,35]octatriaconta-1(37),4(38),6,11,14,16,18,20,23,29,31,33,35-tridecaene-23-carboxylic Acid]
- EC50 ([1]; Homo sapiens, MOLP-8, 6 h): 44 nM
- EC50 [2]: 531 nM
- EC50 ([3]; Homo sapiens, MV4-11, 6 h): 24 nM
- EC50 ([4]; Homo sapiens, KMS-12-BM, 6 h): 48 nM

SMILES: Cc1c2c(nn1C)CSCc1cc(n(C)n1)CSc1cc(c3ccccc3c1)OCCCc1c(C(=O)O)n(C)c3c-2c(Cl)ccc13 (atropisomer, axis not shown; (Ra)) [Example 2, (Ra)-(+)-17-chloro-5,13,14,22-tetramethyl-28-oxa-2,9-dithia-5,6,12,13,22-pentaazaheptacyclo[27.7.1.1^4,7.0^11,15.0^16,21.0^20,24.0^30,35]octatriaconta-1(37),4(38),6,11,14,16,18,20,23,29,31,33,35-tridecaene-23-carboxylic Acid]
- anti-tumor activity, agent alone (NCl-H929 tumor): no significant anti-tumor activity
- anti-tumor effect of combination (NCl-H929 tumor; Example 2 every other week at 30 mg/kg in combination with weekly bortezomib at 1 mg/kg): tumor regression
- EC50 [1]: 30 nM
- mice remaining tumor free (MV-4-11 tumor; once weekly iv 30 mg/kg, 16 days after initiation of therapy): 1 of 6
- tumor regression (MV-4-11 tumor; once weekly iv 30 mg/kg, at Day 6): ~73%
- tumor regression (MV-4-11 tumor; single iv dose of 100 mg/kg): 100%
- mice remaining tumor free (MV-4-11 tumor; single iv dose of 100 mg/kg, 16 days after therapy): 4 of the 6
- anti-tumor activity (qualitative) (MV-4-11 tumor; mice bearing subcutaneous MV-4-11 tumors, iv): significant anti-tumor activity
- EC50 [3]: 20 nM
- EC50 [4]: 43 nM
- anti-tumor activity (qualitative) (MOLP-8 tumor; iv): dose dependent anti-tumor activity
- tumor growth inhibition (TGI) (MOLP-8 tumor; single iv administration at 10 mg/kg): 52%
- tumor growth inhibition (TGI) (MOLP-8 tumor; single iv administration at 30 mg/kg): 92%
- mice with complete tumor regression (MOLP-8 tumor; single iv administration at 60 or 100 mg/kg, measured 10 days after dosing): 13 out of 14

SMILES: CC(C)C[C@H](NC(=O)[C@H](Cc1ccccc1)NC(=O)c1cnccn1)B(O)O [bortezomib, reference compound]
- anti-tumor activity, agent alone (NCl-H929 tumor): no significant anti-tumor activity

SMILES: Cc1c2c(nn1C)CSCc1cc(n(C)n1)CSc1cc(c3ccccc3c1)OCCCc1c(C(=O)O)n(C)c3c-2c(Cl)ccc13 (single isomer, unassigned) [Example 3, (Sa)-(−)-17-chloro-5,13,14,22-tetramethyl-28-oxa-2,9-dithia-5,6,12,13,22-pentaazaheptacyclo[27.7.1.1^4,7.0^11,15.0^16,21.0^20,24.0^30,35]octatriaconta-1(37),4(38),6,11,14,16,18,20,23,29,31,33,35-tridecaene-23-carboxylic Acid]
- EC50 ([1]; Homo sapiens, MOLP-8, 6 h): > 2300 nM
- EC50 ([2]; Homo sapiens, NCI-H23, 6 h): > 10000 nM
- EC50 ([3]; Homo sapiens, MV4-11, 6 h): > 1580 nM
- EC50 ([4]; Homo sapiens, KMS-12-BM, 6 h): > 1030 nM
